Measurements: US10053468B2, “Heterocyclic compound” (TAKEDA PHARMACEUTICAL COMPANY LIMITED, priority 2013, dated 2018)
Like-named read-outs stand apart in the source and are kept apart here.

Columns and labels:
RORγt [1] = biological target: T1, RORγt (Homo sapiens, UniProt P51449); experiment: RORγt binding test using fluorescent-labeled synthetic ligand (TR-FRET); conditions: read-out: Binding inhibitory rate of fluorescent-labeled synthetic ligand to RORγt at test compound 1 μM (%)
T1 sequence (P51449 1-497 isoform P51449-2): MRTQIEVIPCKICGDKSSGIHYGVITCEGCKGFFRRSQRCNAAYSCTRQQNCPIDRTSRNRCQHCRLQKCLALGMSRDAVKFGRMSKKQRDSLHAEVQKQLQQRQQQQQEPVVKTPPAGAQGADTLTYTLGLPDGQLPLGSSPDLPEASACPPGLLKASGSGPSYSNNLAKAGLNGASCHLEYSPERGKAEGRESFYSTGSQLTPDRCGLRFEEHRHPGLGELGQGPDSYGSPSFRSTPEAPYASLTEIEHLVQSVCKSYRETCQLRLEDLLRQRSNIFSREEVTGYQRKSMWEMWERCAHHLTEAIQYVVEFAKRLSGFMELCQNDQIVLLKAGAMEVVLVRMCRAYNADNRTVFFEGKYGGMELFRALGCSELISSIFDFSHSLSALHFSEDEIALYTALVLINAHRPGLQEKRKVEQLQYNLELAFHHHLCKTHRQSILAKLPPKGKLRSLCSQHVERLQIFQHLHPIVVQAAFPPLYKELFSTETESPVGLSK
How it was run: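 His-tagged RORγt (diluted to 240 nM) with compound, then fluorescent synthetic ligand (diluted to 12 μM), 20 min at room temperature, followed by Tb anti-His antibody (diluted to 8 nM), 20 min.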

RORγt [2] = biological target: T1, RORγt; experiment: Cofactor recruitment test (Alpha Screen, biotinylated SRC-1 peptide); type: biochemical; conditions: read-out: Signal value inhibitory rate at test compound 1 μM (%)
Method: Cofactor Recruitment Test
Cofactor recruitment test was performed by Alpha Screen (Histidine Detection Kit, PerkinElmer) method. First, a test compound was diluted with an assay buffer (50 mM Tris-HCl (pH 7.5), 50 mM KCl, 1 mM DTT, 0.1% BSA) and added to a 384 well plate by 5 μL. […] The mixture was stood in a dark place for 1 hr, and the signal value was measured by Envision (PerkinElmer).

RORγt [3] = biological target: T1, RORγt; experiment: Jurkat reporter test (human IL-17 ROR response element luciferase, RORγt vector); type: cell-based; conditions: read-out: Luminescence level inhibitory rate at test compound 3 μM (%)
How it was run: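 Luminescence (Bright-Glo, 10 min, RT) was measured after overnight compound treatment of electroporated Jurkat cells (1350 V, 10 ms interval, 3 pulses). The reaction medium was RPMI with 10% lipid-reduced FCS, 10 mM HEPES (pH 7.5) and 5 μM lovastatin.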

RORγt [4] = biological target: T1, RORγt; experiment: RORγt binding test using fluorescent-labeled cholesterol (TR-FRET); conditions: read-out: Binding inhibitory rate of fluorescent-labeled cholesterol to RORγt at test compound 1 μM (%)
How it was run: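 After 20 min at room temperature with His-tagged RORγt and BODIPY-cholesterol in pH 7.5 Tris buffer (NaCl, DTT, BSA), compound wells got terbium anti-His antibody for another 20 min. Time-resolved FRET was read with excitation 320 nm, emission 520 nm and a 100 µs delay.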

[5] = test compound 3 μM, Jurkat cells

Structure (SMILES)	inhibition at 1 µM (RORγt [1])	inhibition at 1 µM (RORγt [2])	inhibition at 3 µM (RORγt [3]; [5])	inhibition at 1 µM (RORγt [4])	inhibition at 3 µM (RORγt [3]; Jurkat)
COc1ccc2c(c1)CCN(C(=O)Cc1cccnc1)[C@H]2C(=O)Nc1cc(F)c(C(C)(C)C(=O)N2CCCC2)c(F)c1 [Example 105, (1R)-N-(3,5-difluoro-4-(2-methyl-1-oxo-1-(pyrrolidin-1-yl)propan-2-yl)phenyl)-6-methoxy-2-(pyridin-3-ylacetyl)-1,2,3,4-tetrahydroisoquinoline-1-carboxamide]	101%	100%	101%	103%	–
COc1ccc2c(c1)CCN(C(=O)Cc1nnc(C)o1)[C@H]2C(=O)Nc1cc(F)c(C(C)(C)C(=O)N2CCCC2)c(F)c1 [Example 106, (1R)-N-(3,5-difluoro-4-(2-methyl-1-oxo-1-(pyrrolidin-1-yl)propan-2-yl)phenyl)-6-methoxy-2-((5-methyl-1,3,4-oxadiazol-2-yl)acetyl)-1,2,3,4-tetrahydroisoquinoline-1-carboxamide]	101%	101%	102%	102%	–
COCc1ccc2c(c1)CCN(C(=O)c1cc(O)no1)[C@H]2C(=O)Nc1ccc([Si](C)(C)C)c(F)c1 [Example 107, (1R)-N-(3-fluoro-4-(trimethylsilyl)phenyl)-2-((3-hydroxy-1,2-oxazol-5-yl)carbonyl)-6-(methoxymethyl)-1,2,3,4-tetrahydroisoquinoline-1-carboxamide]	102%	100%	–	103%	102%
COCc1ccc2c(c1)CCN(C(=O)CCCC(=O)O)[C@H]2C(=O)Nc1ccc([Si](C)(C)C)c(F)c1 [Example 110, 5-((1R)-1-((3-fluoro-4-(trimethylsilyl)phenyl)carbamoyl)-6-(methoxymethyl)-3,4-dihydroisoquinolin-2 (1H)-yl)-5-oxopentanoic acid]	102%	100%	–	102%	103%
CC[Si](C)(C)c1c(F)cc(NC(=O)[C@H]2c3ccc(OC)nc3CCN2C(=O)c2cc(O)no2)cc1F [Example 111, (5R)-N-(4-(ethyl (dimethyl)silyl)-3,5-difluorophenyl)-6-((3-hydroxy-1,2-oxazol-5-yl)carbonyl)-2-methoxy-5,6,7,8-tetrahydro-1,6-naphthyridine-5-carboxamide]	101%	99%	–	103%	103%
CC[Si](C)(C)c1c(F)cc(NC(=O)[C@H]2c3ccc(OC)nc3CCN2C(=O)CCCC(=O)O)cc1F [Example 114, 5-((5R)-5-((4-(ethyl(dimethyl)silyl)-3,5-difluorophenyl)carbamoyl)-2-methoxy-7,8-dihydro-1,6-naphthyridin-6(5H)-yl)-5-oxopentanoic acid]	102%	98%	–	103%	101%
COc1ccc2c(n1)CCN(C(=O)c1cc(O)no1)[C@H]2C(=O)Nc1cc(F)c2c(c1)CCC2(C)C [Example 115, (5R)-N-(7-fluoro-1,1-dimethyl-2,3-dihydro-1H-inden-5-yl)-6-((3-hydroxy-1,2-oxazol-5-yl)carbonyl)-2-methoxy-5,6,7,8-tetrahydro-1,6-naphthyridine-5-carboxamide]	101%	89%	102%	103%	–
COc1ccc2c(n1)CCN(C(=O)Cc1cc(O)no1)[C@H]2C(=O)Nc1cc(F)c2c(c1)CCC2(C)C [Example 117, (5R)-N-(7-fluoro-1,1-dimethyl-2,3-dihydro-1H-inden-5-yl)-6-((3-hydroxy-1,2-oxazol-5-yl)acetyl)-2-methoxy-5,6,7,8-tetrahydro-1,6-naphthyridine-5-carboxamide]	102%	87%	101%	102%	–
COCc1ccc2c(c1)CCN(C(=O)Cc1cc(O)no1)[C@H]2C(=O)Nc1cc(F)c([Si](C)(C)C)c(F)c1 [Example 121, (1R)-N-(3,5-difluoro-4-(trimethylsilyl)phenyl)-2-((3-hydroxy-1,2-oxazol-5-yl)acetyl)-6-(methoxymethyl)-1,2,3,4-tetrahydroisoquinoline-1-carboxamide]	101%	100%	–	101%	103%
CCOc1ccc2c(n1)CCN(C(=O)c1cc(O)no1)[C@H]2C(=O)Nc1cc(F)c([Si](C)(C)C)c(F)c1 [Example 126, (5R)-N-(3,5-difluoro-4-(trimethylsilyl)phenyl)-2-ethoxy-6-((3-hydroxy-1,2-oxazol-5-yl)carbonyl)-5,6,7,8-tetrahydro-1,6-naphthyridine-5-carboxamide]	101%	100%	–	101%	102%
CCOc1ccc2c(n1)CCN(C(=O)CCCC(=O)O)[C@H]2C(=O)Nc1cc(F)c([Si](C)(C)C)c(F)c1 [Example 129, 5-((5R)-5-((3,5-difluoro-4-(trimethylsilyl)phenyl)carbamoyl)-2-ethoxy-7,8-dihydro-1,6-naphthyridin-6(5H)-yl)-5-oxopentanoic acid]	101%	99%	–	98%	102%
COCc1ccc2c(c1)CCN(C(=O)CCCC(=O)O)[C@H]2C(=O)Nc1cc(F)c([Si](C)(C)C)c(F)c1 [Example 130, 5-((1R)-1-((3,5-difluoro-4-(trimethylsilyl)phenyl)carbamoyl)-6-(methoxymethyl)-3,4-dihydroisoquinolin-2(1H)-yl)-5-oxopentanoic acid]	102%	100%	–	102%	104%
COCc1ccc2c(c1)CCN(C(=O)c1cc(O)no1)[C@H]2C(=O)Nc1cc(F)c([Si](C)(C)C)c(F)c1 [Example 131, (1R)-N-(3,5-difluoro-4-(trimethylsilyl)phenyl)-2-((3-hydroxy-1,2-oxazol-5-yl)carbonyl)-6-(methoxymethyl)-1,2,3,4-tetrahydroisoquinoline-1-carboxamide]	101%	100%	–	103%	103%
COCc1ccc2c(c1)CCN(C(=O)Cc1cc(O)no1)[C@H]2C(=O)Nc1ccc(C(C)(C)C)c(F)c1 [Example 132, (1R)-N-(4-tert-butyl-3-fluorophenyl)-2-((3-hydroxy-1,2-oxazol-5-yl)acetyl)-6-(methoxymethyl)-1,2,3,4-tetrahydroisoquinoline-1-carboxamide]	102%	98%	104%	100%	–
COCc1ccc2c(c1)CCN(C(=O)c1cc(O)no1)[C@H]2C(=O)Nc1cc(F)c2c(c1)CCC2(C)C [Example 133, (1R)-N-(7-fluoro-1,1-dimethyl-2,3-dihydro-1H-inden-5-yl)-2-((3-hydroxy-1,2-oxazol-5-yl)carbonyl)-6-(methoxymethyl)-1,2,3,4-tetrahydroisoquinoline-1-carboxamide]	101%	96%	103%	103%	–
COCc1ccc2c(n1)CCN(C(=O)c1cc(O)no1)[C@H]2C(=O)Nc1cc(F)c([Si](C)(C)C)c(F)c1 [Example 136, (5R)-N-(3,5-difluoro-4-(trimethylsilyl)phenyl)-6-((3-hydroxy-1,2-oxazol-5-yl)carbonyl)-2-(methoxymethyl)-5,6,7,8-tetrahydro-1,6-naphthyridine-5-carboxamide]	102%	97%	–	100%	103%
COCc1ccc2c(c1)CCN(C(=O)c1cc(O)no1)[C@H]2C(=O)Nc1cc(F)c(C(C)(C)COC)c(F)c1 [Example 137, (1R)-N-(3,5-difluoro-4-(1-methoxy-2-methylpropan-2-yl)phenyl)-2-((3-hydroxy-1,2-oxazol-5-yl)carbonyl)-6-(methoxymethyl)-1,2,3,4-tetrahydroisoquinoline-1-carboxamide]	102%	98%	103%	102%	–
